Source: patent EP0328029A2, “Cholesterol-esterase colour substrate” (BOEHRINGER MANNHEIM GMBH, priority 1988, dated 1989)

What was measured:
[1] = test system: Cholesterinesterase (Cholesterinesterhydrolase EC 3.1.1.13); experiment: Cholesterol esterase test with cholesterol oleate as substrate (Bergmeyer UV method, comparison); assay type: biochemical
From the text: Bekannt ist die photometrische Bestimmung im UV. Freigesetztes Cholesterin wird mittels Cholesterinoxidase zu Cholestenon oxidiert, das anhand der Absorptionszunahme bei λ = 240 nm gemessen werden kann (Bergmeyer, Methods of Enzymatic Analysis, 3th.Ed., Vol.II, S.168). Alternativ wird das bei dieser Oxidation gebildete Wasserstoff peroxid durch eine Farb-Reaktion bestimmt (Stähler, Med.Lab. 30, 29 (77)). Diese Methoden sind umständlich und ebenfalls störanfällig.
(§1) Zum Vergleich wurde der Cholesterinesterase-Test mit Cholesterinoleat als Substrat durchgeführt (Bergmeyer, Methods of Enzymatic Analysis, 3th.Ed., Vol.II, S. 168) und mit dem Farbtest gemäß Beispiel 2 verglichen und der Korrelationskoeffizient ermittelt. Die Ergebnisse zeigen Tabelle I und Figur 1. TABELLE I

[2] = test system: Cholesterinesterase (Cholesterinesterhydrolase EC 3.1.1.13); experiment: Cholesterol esterase colour test according to Example 2 (photometric release of resorufin); assay type: biochemical; details: λ = 571 nm, 25°C, 0,1 M Kalium-Phosphat-Puffer pH 6,8
Protocol: 2 mg Cholesterin-glutarsäureresorufinester werden in 0,5 ml Dioxan und 0,5 ml Thesit® gelöst.
Zur Messung werden 850 µl 0,1 M Kalium-Phosphat-Puffer pH 6,8 und 50 µl der oben beschriebenen Substratlösung in einer Küvette gut durchgemischt. Nach Zugabe von 100 µl Probe (Enzymlösung) wird ΔE/min photometrisch bei λ = 571 nm bestimmt (Temperatur = 25°C).
Bei Auswertung über einen Standard bekannter Cholesterinesteraseaktivität wird die Cholesterinesteraseaktivität der Probe wie folgt berechnet [formula] Eine Berechnung der Cholesterinesteraseaktivität der Probe ist auch nach folgender Formel möglich: [formula] Vges : Gesamtvolumen des Testansatzes [cm³] VProbe : Volumen der Probe [cm³] ε : Extinktionskoeefizient des Chromogens bei 571 nm d : Schichtdicke der Küvette [cm] ΔE/min : Extinktionsänderung pro Minute bei 571 nm
Bei den genannten Reaktionsbedingungen beträgt der Extinktionskoeffizient ε = 60,00·cm² ·µmol⁻¹.
as §1

Compound	ΔE/min ([1]; Konz. 1,0 mg/ml)	ΔE/min ([1]; Konz. 1,3 mg/ml)	ΔE/min ([1]; Konz. 2,0 mg/ml)	ΔE/min ([1]; Konz. 5,0 mg/ml)	ΔE/min ([1]; Konz. 6,6 mg/ml)	ΔE/min ([1]; Konz. 10,0 mg/ml)	ΔE/min ([2]; Konz. 1,0 mg/ml)	ΔE/min ([2]; Konz. 1,3 mg/ml)	ΔE/min ([2]; Konz. 2,0 mg/ml)	ΔE/min ([2]; Konz. 5,0 mg/ml)	ΔE/min ([2]; Konz. 10,0 mg/ml)
CCCCCCCC/C=C\CCCCCCCC(=O)O[C@H]1CC[C@@]2(C)C(=CC[C@H]3[C@@H]4CC[C@H]([C@H](C)CCCC(C)C)[C@@]4(C)CC[C@@H]32)C1 [Cholesterin-Oleat, Cholesterinoleat]	0,007	0,011	0,015	0,036	0,045	0,072					
CC(C)CCC[C@@H](C)[C@H]1CC[C@H]2[C@@H]3CC=C4C[C@@H](OC(=O)CCCC(=O)Oc5ccc6nc7ccc(=O)cc-7oc6c5)CC[C@]4(C)[C@H]3CC[C@]12C [Cholesterin-Glutarsäure-Resorufinester, Cholesterin-glutarsäure-resorufinester]							0,009	0,013	0,015	0,033	0,071
